In US7872016B2, “Method for treating skeletal disorders resulting from FGFR malfunction” (Yale University, priority 2004, dated 2011):
Entries after “also recorded” stand apart in the source; their conditions may differ.

Legend:
FGFR2 = target: T1, FGFR2 (Mus musculus, UniProt P21803); assay: Blocking ligand-stimulated tyrosine autophosphorylation of FLAG-tagged FGFR2 in 3T3 cells (IP / anti-pTyr immunoblot); type: cell-based; details: 3T3 cells pretreated 5 minutes, then ligand stimulated 5 minutes at 37° C.
T1 construct: expressed in transfected cells; host or cells: 3T3 cells
Experimental: FIGS. 14A-D show pharmacological intervention in FGFR activation. (C) Structure of [4-(3,5-difluorophenyl)-1H-pyrrolo[2,3-b]pyridin-3-yl](3-methoxyphenyl)methanone (PLX052). (D) 3T3-cells treated for 5 minutes with PLX052 were ligand stimulated for 5 minutes at 37° C. Cell lysates were subjected to immunoprecipitation with anti-FLAG tag antibodies (the expression vector contains a tag in the c-terminus of FGFR2) followed by immunoblotting with either anti-phosphotyrosine (pTyr) or anti-FLAG antibodies. (A & B) Crystals of the apo-FGFR1 minimal kinase domain were grown at 4° C. by vapor diffusion in hanging drops containing 2 uL of 12 mg/mL protein solution and 2 uL of reservoir solution: 16% PEG8K, 0.25 M (NH4)2SO4, 5% ethylene glycol, 10 mM DTT, and 0.1 M Bis Tris, pH 5.8. Native crystals were soaked overnight at 4° C. in mother liquor containing 2 mM PLX052 and 5% DMSO. Complexed crystal belongs to monoclinic space group C2 and has unit cell dimensions a=211.9 Å, b=49.7 Å, c=66.2 Å, and β=107.4°. One cryo-cooled crystal was used for data collection, and data was collected at beamline X26 at Brookhaven National Laboratory. Co-crystallization of the kinase with PLX052 was also performed and found the same structural result. […] The nucleotide binding loop is shown in blue, the hinge region in magenta, and the catalytic core in yellow. (A) The side chains that interact with PLX052. […]

FRS2α [1] = assay: FRS2 phosphorylation in mutant cells expressing constitutively activated Crouzon-like mutant Fgfr2c isoform; type: cell-based; details: results not shown
Experimental: (§1) We first tested the effect of PLX052 in vitro for blocking the activation of FGFR2. Cells were pretreated for 5 minutes with the compound before stimulation. […] We further tested the ability of PLX052 in blocking the FRS2 phosphorylation in mutant cells expressing constitutively activated Crouzon-like mutant Fgfr2c isoform.

MAP Kinase signaling = MAP Kinase signaling in mutant cells expressing constitutively activated Crouzon-like mutant Fgfr2c isoform; type: cell-based; details: results not shown
Experimental: as §1

[2] = system: wild type suture (calvaria); assay: Calvaria organ culture, wild type mice: suture development; type: cell-based, mouse; details: for normal development of the sutures in the wild type: cultured 21 days
Experimental: (§2) FIGS. 15A-15D show results of in vitro culture of calvaria with FGFR inhibitor PLX052. Calvaria harvested from the Crouzon mutant and wild type E18.5 day old embryos were cultured in DMEM medium containing 10% FCS supplemented with ascorbic acid at 100 μg/ml and 1 μM PLX052 in 24 well plates. Medium was changed on alternate days along with the inhibitor. Controls were cultured with the vehicle only (0.2% DMSO). Calvaria were cultured for 14 days. After the specified time, calvaria were fixed in 10% buffered formalin, dehydrated followed by infiltration and embedding in methylmethacrylate plastic. Blocks were cut perpendicular to the coronal suture, that passes through the frontal bone (anterior side) and the parietal bone (posterior side). […] sections were collected and stained with toludine blue (FIG. 15.2, left panels). Adjacent sections were stained for minerals of the bone matrix using Van Kossa followed by methyl green counter staining. (A) wild type, and (B), mutant calvaria cultured with the vehicle alone (0.2% DMSO). Note the open suture in the wild type (A) and the fused suture in the mutant (B) cultured calvaria. (C), wild type and (D), mutant cultured with 1 μM PLX052 (in 0.2% DMSO). The left panels [(i), (iii)] are toluidine blue staining and the right panels [(ii), (iv)] are Van Kossa with methyl green counter staining. Lower panels [(iii), (iv)] are the higher magnification of the sutures shown in the boxed region of the upper panels [(i), (ii)].
(§3) PLX052 prevents cranial suture fusion in vitro. Next, we tested the ability of the PLX052 to prevent craniosynostosis in calvaria organ culture from wt and Crouzon-like mutant mice (FIG. 15). […] The calavria organ culture experiments were repeated with two different concentrations of PLX052 (1 μM and 5 μM) and cultured for extended period of time (21 days) to assess the dose response for this inhibitor (see below). […] Higher concentrations of PLX052 (50 μM and above) have caused extensive cell death within 24 hours in cultured cells. […]

cultured cells = assay: Cell death in cultured cells; type: cell-based; details: within 24 hours
Experimental: PLX052 prevents cranial suture fusion in vitro. Next, we tested the ability of the PLX052 to prevent craniosynostosis in calvaria organ culture from wt and Crouzon-like mutant mice (FIG. 15). […] The calavria organ culture experiments were repeated with two different concentrations of PLX052 (1 μM and 5 μM) and cultured for extended period of time (21 days) to assess the dose response for this inhibitor (see below). […] Higher concentrations of PLX052 (50 μM and above) have caused extensive cell death within 24 hours in cultured cells. Therefore, it is feasible to use limited amount of inhibitor to attenuate the abnormal signaling from the mutant receptors without causing adverse effect on the normal signaling pathways.

[3] = system: coronal suture of Crouzon-like mutant mice calvaria; assay: Calvaria organ culture, Crouzon-like mutant mice: coronal suture fusion; type: cell-based, mouse; details: for premature fusion of coronal suture of mutant mice calvaria: cultured 21 days
Experimental: as §2, §3

FRS2α [4] = details: unstimulated cells treated with the MEK inhibitor; cited from earlier work
[5] = 1 μM, E18.5 calvaria cultured 14 days

T1 sequence (P21803 22-821): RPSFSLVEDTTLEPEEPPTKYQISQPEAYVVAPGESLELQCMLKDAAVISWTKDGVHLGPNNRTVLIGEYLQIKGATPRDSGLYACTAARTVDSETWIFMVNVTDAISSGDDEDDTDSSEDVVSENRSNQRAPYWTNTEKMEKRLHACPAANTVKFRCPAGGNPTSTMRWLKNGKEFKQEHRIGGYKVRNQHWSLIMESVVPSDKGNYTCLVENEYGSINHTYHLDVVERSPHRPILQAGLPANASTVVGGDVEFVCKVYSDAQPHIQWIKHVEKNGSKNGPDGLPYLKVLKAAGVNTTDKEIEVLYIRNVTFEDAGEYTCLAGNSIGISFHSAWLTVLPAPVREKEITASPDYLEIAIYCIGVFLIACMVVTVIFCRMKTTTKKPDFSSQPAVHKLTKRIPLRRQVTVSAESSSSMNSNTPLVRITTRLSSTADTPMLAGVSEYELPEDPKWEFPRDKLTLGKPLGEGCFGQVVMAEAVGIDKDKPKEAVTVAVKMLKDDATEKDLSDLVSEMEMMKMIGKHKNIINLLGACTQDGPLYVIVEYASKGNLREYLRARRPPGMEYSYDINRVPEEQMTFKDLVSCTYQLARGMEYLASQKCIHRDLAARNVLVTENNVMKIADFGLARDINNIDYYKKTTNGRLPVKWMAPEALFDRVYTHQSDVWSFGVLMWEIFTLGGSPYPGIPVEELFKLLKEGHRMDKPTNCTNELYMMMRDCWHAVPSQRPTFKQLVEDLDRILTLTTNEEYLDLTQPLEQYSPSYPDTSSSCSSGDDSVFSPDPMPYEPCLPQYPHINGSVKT

Row | SMILES | concentration that inhibits FGFR activation to basal levels (tyrosine autophosphorylation of FGFR2) (FGFR2) [µM] | phosphorylation of FRS2α (FRS2α [1]) | MAP Kinase signaling (MAP Kinase signaling) | growth of the wild type suture [2, 5] | normal development of the sutures in the wild type ([2]; 1 μM) | normal development of the sutures in the wild type ([2]; 5 μM) | concentration causing extensive cell death (cultured cells) [µM] | premature fusion of coronal suture in mutant calvaria in vitro [3, 5] | premature fusion of coronal suture of mutant mice calvaria ([3]; 1 μM) | premature fusion of coronal suture of mutant mice calvaria ([3]; 5 μM) | tyrosine phosphorylation of FRS2α (FRS2α [4])
1 | COc1cccc(C(=O)c2c[nH]c3nccc(-c4cc(F)cc(F)c4)c23)c1 [PLX052, [4-(3,5-difluorophenyl)-1H-pyrrolo[2,3-b]pyridin-3-yl](3-methoxyphenyl)methanone] | 10 | significant reduction in the phosphorylation of FRS2α | attenuated MAP Kinase signaling | did not affect the growth of the wild type suture | without affecting the normal development of the sutures in the wild type | without affecting the normal development of the sutures in the wild type | ≥ 50 | able to rescue the premature fusion of coronal suture; also recorded: open suture in the mutant cultured with PLX052 | able to prevent the premature fusion of coronal suture | able to prevent the premature fusion of coronal suture | 
2 | COc1cccc(-c2cc(=O)c3ccccc3o2)c1N [PD 0980089] |  |  |  |  |  |  |  |  |  |  | leads to constitutive tyrosine phosphorylation of FRS2α
